Measurements taken from publication PMC7497412 (RSC Advances, 2020).
≈ marks a conversion by molar mass, not a printed value. Where two headings read alike, the source gives them in different places.

What was measured:
Vero cells = experiment: Cytotoxicity on Vero cells; assay type: cell-based; conditions: for SI (selectivity index): SI = IC50(Vero)/MIC
M. tb V4207/DS = experiment: microbe, parasite or virus in culture; assay type: cell-based; conditions: Mycobacterium tuberculosis, read-out: M. tb MIC V4207/DS
M. avium = experiment: MIC against M. avium; assay type: cell-based; conditions: Mycobacterium avium, read-out: M. avium MIC
M. abs = experiment: MIC against M. abs; assay type: cell-based, Mycobacterium abscessus; conditions: Mycobacteroides abscessus, read-out: M. abs MIC
[1] = Chlorocebus sabaeus, Vero, read-out: IC50 Vero cells, cytotoxicity, Vero cells
[2] = read-out: IC50 Vero cells, cytotoxicity, Vero cells

SMILES	SI (selectivity index) (Vero cells)	MIC (M. tb V4207/DS) [µM]	MIC (M. avium) [µM]	MIC (M. abs) [µM]	IC50 (Vero cells; [1]) [µM]	IC50 (Vero cells; [2]) [µM]
O=C(NC12CC3CC(CC(C3)C1)C2)c1cc(=O)c2c(Br)cccc2[nH]1 [8i, N-(1-Adamantanyl)-5-bromo-4-oxo-1,4-dihydroquinoline-2-carboxamide]	4	9.97 (≈ 4 µg/mL)	> 159	> 159		
O=C(NC1CCCCCCC1)c1ccc2ccccc2c1 [13c, N-Cyclooctyl-2-naphthamide]	≥32	7.11 (≈ 2 µg/mL)	> 227	> 227	≥ 227	
O=C(NC12CC3CC(CC(C3)C1)C2)c1ccc2ccccc2c1 [13d, N-(1-Adamantanyl)-2-naphthamide]	≥64	6.55 to 13.1 (≈ 2 to 4 µg/mL)	> 209	> 209	≥ 227	≥ 419
O=C(Nc1nc(-c2ccc(Cl)cc2Cl)cs1)C12CC3CC(CC(C3)C1)C2 [18b, N-(4-(2,4-Dichlorophenyl)thiazol-2-yl)adamantane-1-carboxamide]	1	9.82 (≈ 4 µg/mL)	> 157	> 157	9.82 to 39.9	9.82
